Patent EP2671597A1, “Chimeric constructs between glioma-homing peptide and cell-penetrating peptides, gHoPe2” (Cepep III AB, priority 2012, dated 2013)
“Also recorded” adds a separate entry of the source. Ends that are not written are not given here. FAM = 5(6)-carboxyfluorescein

Tests used:
[1] = test system: subcutaneous U87 tumor; assay: Biodistribution of FAM-labelled peptides, subcutaneous tumour model; type: in vivo, mice; settings: for localization in tumor tissue: i.v., 3 h before tissue collection, FAM fluorescence of cryosections (Figure 5)
Experimental: (§1) Localization of the peptide vectors was assessed postmortem after injecting FAM-labeled peptides in homozygous female nude mice (C.Cg/AnNTac-Foxn1nu, Taconic), bearing tumor xenografts either intracranially or subcutaneously. 8×10^5 U87 cells were resuspended in 100 µl (s.c tumor model) or in 5 µl (intracranial tumor model) of fresh DMEM medium, without serum and antibiotics. The xenografting was performed by implanting the cell suspension subcutaneously or intracranially into one of the striatums (stereotaxic coordinates A=+1, L=+2, V=+3.5). At the appearance of the first signs of tumor growth (for the subcutaneous tumors: tumor size of approx 300 mm^3; for the intracranial tumors: the first sign is usually weight loss), mice were injected i.v. (via tail vein) with the peptide constructs. For the biodistribution, 100 µl of 200 µM FAM-labeled peptide suspension (in saline) was used. This represents a dose of 4 mg/kg for a mouse of 20 g. At 3h post-injection, the animals were anesthetized and intracardially perfused with 50 ml of PBS, followed by 50 ml of fixation solution (4% w/v paraformaldehyde in PBS, pH 7.4). Tissues were collected, postfixed for 2h in the same fixation solution, cryoprotected in sucrose (10% for 24h, followed by 30% for 1 week, at 4°C), snap frozen in 2-methylbutane (AppliChem) kept on dry ice. The tissues were cut on a cryostat with a thickness of 10-15 µm, counterstained with DAPI (AppliChem) and mounted using Vectashield (Vector Labs) mounting media.
(§2) The biodistribution of FAM-labeled gHoPe2 was determined in two mouse tumour models. FAM-labeled gHo and gHoPe2 were injected 3h before tissue collection. The circulation time of 3 h was chosen from initial pilot experiments with 1 h, 3h, 6h and 24h circulation times, where the highest fluorescence in the tumor occurred at 3h.
Firstly, a mouse model of subcutaneous U87 tumor was used. […] We detected no FAM-labeled gHo in tumor tissue and none of the peptides in the (intact) brain tissue, the kidney, and liver.

[2] = test system: human glioma cells (U87); assay: Cellular internalization by confocal microscopy; type: cell-based; settings: 10 µM, 30 min incubation (Figure 3)
Experimental: (§3) U87 cells (1×10^4) were seeded in Lab-Tek® 8-well chamber slides to reach 50% confluence one day prior to experimentation. After 30 min of incubation with the peptide constructs in complete medium at 37°C, cells were washed four times with PBS, followed by the addition of trypan blue (0.1 %) in OptiMEM and examined using Olympus IX81 inverted microscope equipped with FluoView 1000 confocal system using a 60x water-immersion and 100x oil-immersion objectives and excitation at 488 nm (fluorescein). For the membrane association experiments the cells were incubated with FAM-labeled peptide for 30 min at 37°C in complete medium. After the incubation period, cells were washed once with PBS and re-suspended in fresh OptiMEM medium.
(§4) The cellular uptake of the chimeric peptides gHoPe2 and gHoPe3 in U87 cells, using confocal microscopy and flow cytometry is depicted in Figures 3 and 4, respectively.

[3] = test system: U87 cells; assay: MTS cell viability (proliferation) assay; type: cell-based, human; settings: FAM-labelled peptides, up to 20 µM, 24h
Experimental: Long-term toxicity was evaluated using an MTS proliferation assay (Promega, Madison, WI, USA). The MTS assay measures the activity of mitochondrial dehydrogenases to convert tetrazolium salts into formazan. Briefly, 1×10^4 cells were seeded 24h in 96-well plates before treatment with the peptides or peptide-drug conjugates, which was conducted in complete medium for 24h. Thereafter, MTS proliferation assay was used according to the manufacturer's protocol. Untreated cells were defined as 100% viable.
(§5) All figures are presented as mean ± SEM. The cell uptake data represent three independent experiments performed in duplicate. For toxicity measurements, a decrease in viability was considered significant at p <.001 using ANOVA Dunnett's multiple comparison test.

[4] = test system: U87 cells; assay: LDH leakage assay (membrane integrity); type: cell-based, human; settings: FAM-labelled peptides, up to 20 µM, 48h, compared to 0.2% of Triton
Experimental: Membrane integrity was evaluated using LDH leakage assay (SIGMA-ALDRICH™ St. Louise, MO, USA), which measures lactate dehydrogenase release. Briefly, 1×10^4 cells were seeded 24h in 96-well plates before treatment with the peptides or peptide-drug conjugates, which was conducted in complete medium for 48h. Thereafter, LDH leakage was assessed according to the manufacturer's protocol. Untreated cells were defined as no leakage and 100% leakage was defined as total LDH release by lysing cells in 0.2% Triton X-100 in HKR buffer.
as §5

[5] = test system: human glioma cells; assay: Cellular uptake by flow cytometry (FACS); type: cell-based; settings: 30 min incubation (Figure 4)
Experimental: U87, HEK and Hela cells (5×10^4) were seeded 24 h prior to experiments into 24-well plates. Cells were incubated for 30 min in complete media after treatment with the peptide constructs. Thereafter, cells were washed four times with PBS and once with trypsin, suspended in ice-cold PBS and flow cytometry analysis was carried out with a BD LSR II flow cytometer (BD Biosciences, San Jose, CA, USA) equipped with a 488 nm argon laser and analyzed with FACSDiva software. The filter settings for excitation and emission were 480/530 nm bandpass (FL1) for FITC. Live cells were gated by forward/side scattering from a total of 10000 events.
as §4

[6] = test system: intracranial glioblastoma; assay: Biodistribution of FAM-labelled peptides, intracranial tumour model; type: in vivo, mice; settings: i.v.; for uptake in lungs, heart, spleen, muscle and skin: animals with intracranial tumours, 3 h (Figure 8); for localization in intracranial tumour: 3 h before tissue collection, FAM fluorescence (Figures 6, 7)
Experimental: as §1, §2
Secondly, biodistribution of FAM-labeled gHo and gHoPe2, as well as FAM-labeled pVEC and gHoPe3 was assessed in a mouse model of intracranial glioblastoma. To estimate the general distribution of gHoPe2 within the glioma-containing brain, the whole coronal section was reconstructed from single microscopic images.

[7] = test system: subcutaneous U87 tumors; assay: Antitumour effect in vivo, tumour growth; design: species or system mice; settings: 8.3 mg/kg (369 µM, 100 µl) i.v. twice a week; Tukey post-hoc p<.05 (Figure 13)
Experimental: Localization of the peptide vectors was assessed postmortem after injecting FAM-labeled peptides in homozygous female nude mice (C.Cg/AnNTac-Foxn1nu, Taconic), bearing tumor xenografts either intracranially or subcutaneously. 8×10^5 U87 cells were resuspended in 100 µl (s.c tumor model) or in 5 µl (intracranial tumor model) of fresh DMEM medium, without serum and antibiotics. The xenografting was performed by implanting the cell suspension subcutaneously or intracranially into one of the striatums (stereotaxic coordinates A=+1, L=+2, V=+3.5). At the appearance of the first signs of tumor growth (for the subcutaneous tumors: tumor size of approx 300 mm^3; for the intracranial tumors: the first sign is usually weight loss), mice were injected i.v. (via tail vein) with the peptide constructs. For the biodistribution, 100 µl of 200 µM FAM-labeled peptide suspension (in saline) was used. This represents a dose of 4 mg/kg for a mouse of 20 g. […]
The tumor treatments were performed using 1 mg/kg doxorubicin (369 µM, 100 µl, for an animal of 20 g) and an equivalent dose (8.3 mg/kg) of dox-gHoPe2 (369 µM, 100 µl) i.v. twice a week. The subcutaneous tumor dimensions were measured using calibre; tumor volume was calculated as (length × width^2)/2.
The efficacy of dox-gHoPe2 was assessed in the model of subcutaneous U87 tumors. […]

[8] = test system: HeLa cells; assay: Confocal microscopy, association of FAM-labelled targeting peptide with cells; type: cell-based; settings: 20 µM, 30 minutes
Experimental: (§6) The human embryonic kidney 293 cell line (HEK 293) and human glioblastoma-astrocytoma, epithelial-like cell line U87 MG (American Type Culture Collection via LGC, Sweden) and cervical cancer HeLa cells were cultured in Dulbecco's Modified Eagle Medium (DMEM) with L-glutamine. Medium was supplemented with 10% FBS, sodium pyruvate (1 mM), penicillin (100 U/ml), streptomycin (100 µg/ml) and 1% nonessential amino acids (further denoted as complete medium) (PAA Laboratories GmbH, Austria). Cell cultures were cultivated at 37°C in a humidified 5% CO2 incubator.
as §3, with “OptiMEM medium. […]” for “OptiMEM medium.”

[9] = test system: U87 glioma cells; assay: as above; type: cell-based, human
Experimental: as §6, §3
(§7) To confirm binding of the targeting peptide with glioma cells, gHo peptide was labeled with fluorescent marker FAM (see the composition in Table 1) and incubated with U87 glioma cells as well as with two non-neuronal cell lines, HeLa and HEK, for 30 minutes at the room temperature, followed by mild washing of the cells.

[10] = test system: HEK cells; assay: as above; type: cell-based, human; settings: 20 µM, 30 minutes
Experimental: as §6, §3, §7

NHQQQNPHQPPM-NH2 [FAM-gHo] ({FAM}-NHQQQNPHQPPM-NH2; also: FAM label, place not given here) [gHo N-terminally labelled with 5(6)-carboxyfluorescein]
localization in tumor tissue [1]: detected no
Cellular internalization [2]: no uptake

LLIILRRRIRKQAHAHSK-NH2 [pVEC, 18-amino acid cell-penetrating peptide derived from murine vascular endothelial-cadherin, reference compound]
cell viability (MTS) [3]: did not induce any toxic effects
LDH leakage (membrane leakage) [4]: did not induce any significant membrane leakage
Cellular internalization [2]: internalized very efficiently

LLIILRRRIRKQAHAHSK-NHQQQNPHQPPM-NH2 [FAM-gHoPe2]
cell viability (MTS) [3]: did not affect cell viability
cell viability (MTS) ([3]; listed as gHoPe2): did not induce any toxic effects
cellular uptake [5]: highest; also recorded: significantly differed from the uptake values of FAM-gHoPe3 (main effect p<.01, Tukey post hoc) and FAM-gHo (p<.001)
uptake in lungs, heart, spleen, muscle and skin [6]: No uptake
presence in adjacent intact brain, kidney and liver ([6]; 3 h (Figure 7)): not
localization in intracranial tumour [6]: localizes in tumours
localization in intracranial tumour ([6]; listed as FAM-labelled gHoPe2): global FAM localization in the tumour area
localization in intracranial tumour ([6]; listed as gHoPe2): can be seen in the tumor area; also recorded: specific localization
localization in the adjacent intact brain ([6]; whole coronal section, 3 h (Figure 6)): not
LDH leakage (membrane leakage) [4]: did not affect cell viability
LDH leakage (membrane leakage) ([4]; listed as gHoPe2): did not induce any significant membrane leakage
localization in tumor tissue [1]: localizes in tumours; also recorded: homing
circulation time of the highest fluorescence in the tumor ([1]; initial pilot experiments with 1 h, 3h, 6h and 24h circulation times, tumour model not stated): 3 h
Cellular internalization [2]: exhibited cellular uptake of varying degrees

NHQQQNPHQPPM-LLIILRRRIRKQAHAHSK-NH2 [FAM-gHoPe3]
cell viability (MTS) [3]: did not affect cell viability
cell viability (MTS) ([3]; listed as gHoPe3): did not induce any toxic effects
LDH leakage (membrane leakage) [4]: did not affect cell viability
LDH leakage (membrane leakage) ([4]; listed as gHoPe3): did not induce any significant membrane leakage
Cellular internalization [2]: exhibited cellular uptake of varying degrees; also recorded: internalized, but to a lesser extent

XCLLIILRRRIRKQAHAHSK-NHQQQNPHQPPM-NH2 [Dox-gHoPe2]
tumor size versus untreated group [7]: significantly smaller

NHQQQNPHQPPM-NH2 [gHo, glioma-homing targeting peptide]
cellular uptake [5]: did not internalize
binding to HeLa cells [8]: not and did not bind
uptake in lungs, heart, spleen, muscle and skin [6]: No uptake
localization in intracranial tumour [6]: not
LDH leakage (membrane leakage) [4]: did not induce any significant membrane leakage
Association of the targeting peptide gHo with glioma cells (U87) ([9]; 20 µM (Figure 2)): associated
association of gHo with U87 ([9]; FAM-labelled peptide, all tested concentrations 1-20 µM, 30 minutes, mild washing): confirmed association
binding to HEK cells [10]: not and did not bind
Cellular internalization [2]: did not internalize

LLIILRRRIRKQAHAHSK-NH2 [FAM-pVEC] ({FAM}-LLIILRRRIRKQAHAHSK-NH2) [pVEC N-terminally labelled with 5(6)-carboxyfluorescein, reference compound]
cell viability (MTS) [3]: did not affect cell viability
cellular uptake [5]: highest
LDH leakage (membrane leakage) [4]: did not affect cell viability
Cellular internalization [2]: exhibited cellular uptake of varying degrees
